The values that follow come from US20100022626A1, “Modulators of cell migration and methods of identifying same” (priority 2005, published 2010).

This assay deals with H1299 cells. The experiment in a line: Phagokinetic track (PKT) assay of H1299 cells treated with cytoskeletal drugs. The assay is classed as cell-based. To be noted: for Track area: 4 μM Latrunculin A, 2.5 μM Nocodazole or 100 ng/ml PMA, 5 h total; for Track area / Axis ratio / Effective velocity / Major axis / Migration velocity / Minor axis / Perimeter / Roughness / Solidity: mean ± SD; for Effect on cell motility (montage images, FIG. 6): Latrunculin A 4 μM, Nocadazole 2.5 μM, PMA 100 ng/ml; for PKT area compared to control cells: Latrunculin/Nocodazole p=~0, PMA p<0.05; for Axis ratio / Effective velocity / Major axis / Migration velocity / Minor axis / Perimeter / Roughness / Solidity: same treatments. The procedure:
Preparation of 96-wellplates: Glass-bottom 96-well plates (Cat. # 7706-2370, Whatmann, Inc., Clifton, N.J., USA) were treated for 2 hours at room temperature with 50 μl of 10 μg/ml fibronectin solution dissolved in PBS (Fibronectin, F-1141; Sigma Chemical Co., St Louis, Mo., USA). The wells were then washed twice with PBS and coated with 340 nm diameter white polystyrene latex beads (Product no. 2-300; batch no. 1344); Interfacial Dynamics Corporation-Molecular Probes Microspheres Technologies, USA. The bead suspension (3.2 ml) was centrifuged for 5 minutes at 20,800×g, and resuspended in 4 ml PBS by vortex, until all visible bead clumps were dispersed. The sedimentation procedure was then repeated, after which the beads were resuspended in 7 ml PBS, to a final concentration of […]. Aliquots of 70 μl of the bead suspension were added to each well, pre-coated with fibronectin, in the 96-well plate, and incubated at 37° C. for 2 hours, followed by gentle washing (×5 times) with PBS using a plate washer (Colombus Plus, Tecan, Switzerland). Before cells were plated, the PBS was replaced with 50 μl culture medium suitable for the particular cell type used in the assay (see FIG. 1).
Cell preparation for the phagokinetic track assay: MCF7 (ATCC-HTB-22), MDA-MB-231 (ATCC-HBT-26), and B16-F10 (ATCC-CRL-6475) cells were grown in Dulbeco's Modified Eagle's Medium (DMEM). H1299 cells (ATCC-CRL-5803) were grown in RPMI-1640. Both culture media were supplemented with 10% FCS, 2 mM glutamine, 100 international units/ml penicillin and 100 μg/ml streptomycin (Biological Industries, Beit Haemek, Israel), and placed in a 5% CO2 humidified incubator kept at 37° C. For the PKT assay, 200-400 cells (a 50 μl volume) were cultured in each well. Depending on the track dimensions, the number of the plated cells was calibrated to maximize the number of single cell tracks, yet minimize the number of intersecting tracks.
Phagokinetic track assay: In order to characterize the motile behavior of the various cell lines, MCF7, MDA-MB-231, B16-F10 and H1299 cells were plated on a monolayer of polystyrene beads. All were incubated at 37° C., 5% CO2 for 7 hours, except for the H1299 cells, which were incubated for 5 hours. The first three cell lines were grown in DMEM, and H1299 cells were grown in RPMI 1640 medium, Both media were supplemented with 10% FCS and penicillin/streptomycin antibiotic. At the end of the incubation period, cells were fixed with 3% PFA. Images were taken with a 10× objective, using the autofocus screening microscope system.
Automated microscopy: Commercially-available plates display large deviations from a plane, often exceeding 200 μm, which require adjustment of the focal plane for every image. Commonly-used autofocusing procedures, which are based on finding the highest contrast image among a focal series, are slow and not robust, particularly when low-contrast images, such as those yielded by a monolayer of micro-beads, are used. The phagokinetic tracks were therefore recorded using a cell-screening microscope described in detail (Paran et al., Methods in Enzymology, in press). The rapid, automated collection of sharp, in-focus PKT images was aided by a laser autofocus device (Liron et al., 2006, J Microsc 221, 145-51). The laser autofocus device enables precise location of the substrate surface, and guarantees sharp definition of track boundaries.
The microscope operating program and the image acquisition software was written (In-house) as an application within the UCSF Priism environment (http://msg.ucsf.edu/ive). The microscope includes a computer-controlled plate scanning stage (Prior, Cambridge UK) that defines the pattern of coverage of the well area by the individual images. For this application, images were taken using a 10×/0.4 objective, and adjacent fields were stitched together, forming a montage of the entire well, or any desired fraction of the well area. […]

The structures appear in SMILES notation.

Take `CCCCCCCCCCCCCC(=O)O[C@@H]1[C@@H](C)[C@@]2(O)[C@@H](C=C(CO)C[C@]3(O)C(=O)C(C)=C[C@@H]23)[C@@H]2C(C)(C)[C@]12OC(C)=O` [PMA, Phorbol 12-mirysyate 13-acetate]: the Track area turned out to be 14300 ± 9100 μm^2, the Axis ratio is on record as 2.1 ± 0.9, the Effective velocity is given as 46 ± 21 μm/h and the Major axis is listed as 220 ± 104 μm. The Migration velocity was found to be 59 ± 26 μm/h, the Minor axis is given as 108 ± 42 μm, the Perimeter was 695 ± 350 μm and the Roughness stood at 2.9 ± 1.4. The same compound registered a Solidity of 0.8 ± 0.1. For the same compound, where the note is “in words”, the “Effect on cell motility (montage images, FIG. 6)” value (“Effect on cell motility” for short) was “increase in cell motility”; the “Axis ratio compared to control cells” value is recorded as “did not significantly differ”; the “Effective velocity compared to control cells” value is “did not significantly differ”; the “Major axis compared to control cells” value is “did not significantly differ”. For the same compound, under “in words”, the “Migration velocity compared to control cells” value is “increased”, the “Minor axis compared to control cells” value is listed as “did not significantly differ”, the “Roughness compared to control cells” value is listed as “increased” and the “PKT area compared to control cells” value is recorded as “increased”. In addition, the “Solidity compared to control cells” value (in words, p<0.05) was “increased”.
For `C/C1=C/C(=O)O[C@@H]2C[C@@H](CC[C@H](C)/C=C\C=C\CC1)O[C@@](O)([C@@H]1CSC(=O)N1)C2` [Latrunculin A], the Track area turned out to be 5900 ± 3500 μm^2, the Axis ratio is given as 1.5 ± 0.4, the Effective velocity was 8 ± 5 μm/h and the Major axis worked out at 121 ± 44 μm. This compound displayed a Migration velocity of 10 ± 6 μm/h, a Minor axis of 79 ± 19 μm, a Perimeter of 380 ± 150 μm and a Roughness of 2.0 ± 0.7. This compound displayed a Solidity of 0.9 ± 0.07. For the same compound, where the note is “in words”, the “Effect on cell motility” value was “inhibited cell motility”; the “Axis ratio compared to control cells” value is “reduced”; the “Migration velocity compared to control cells” value was “reduced”; the “Roughness compared to control cells” value is listed as “decreased”. For the same compound, under “in words”, the “PKT area compared to control cells” value is “reduced”.
Consider `COC(=O)Nc1nc2ccc(C(=O)c3cccs3)cc2[nH]1` [Nocodazole], for which the Track area is on record as 6100 ± 3600 μm^2, the Axis ratio is 1.6 ± 0.4, the Effective velocity was 14 ± 8 μm/h and the Major axis amounted to 123 ± 43 μm. For the same compound, the Migration velocity stood at 17 ± 11 μm/h, the Minor axis was found to be 78 ± 18 μm, the Perimeter is listed as 385 ± 140 μm and the Roughness was found to be 2.1 ± 0.9. This compound returned a Solidity of 0.9 ± 0.07. Also, for the setting “in words”, the “Effect on cell motility” value is recorded as “inhibited cell motility”; the “Axis ratio compared to control cells” value is recorded as “reduced”; the “Migration velocity compared to control cells” value is “reduced”; the “Roughness compared to control cells” value is “decreased”. In addition, the “PKT area compared to control cells” value (in words) is given as “reduced”.
